According to US20120065173A1 (priority 2006, published 2012):

target: T1, recombinant human GR (Homo sapiens, UniProt P04150); assay: Human Glucocorticoid Receptor (GR) Assay, fluorescence polarization (GRhuFL_FP_v2); type: binding; conditions: GS Red tracer, 2 hours at room temperature, 100% control 10 μM Dexamethasone
T1 construct: purchased Panvera/Invitrogen P2812 (kit P2893)
T1 sequence (P04150 1-777): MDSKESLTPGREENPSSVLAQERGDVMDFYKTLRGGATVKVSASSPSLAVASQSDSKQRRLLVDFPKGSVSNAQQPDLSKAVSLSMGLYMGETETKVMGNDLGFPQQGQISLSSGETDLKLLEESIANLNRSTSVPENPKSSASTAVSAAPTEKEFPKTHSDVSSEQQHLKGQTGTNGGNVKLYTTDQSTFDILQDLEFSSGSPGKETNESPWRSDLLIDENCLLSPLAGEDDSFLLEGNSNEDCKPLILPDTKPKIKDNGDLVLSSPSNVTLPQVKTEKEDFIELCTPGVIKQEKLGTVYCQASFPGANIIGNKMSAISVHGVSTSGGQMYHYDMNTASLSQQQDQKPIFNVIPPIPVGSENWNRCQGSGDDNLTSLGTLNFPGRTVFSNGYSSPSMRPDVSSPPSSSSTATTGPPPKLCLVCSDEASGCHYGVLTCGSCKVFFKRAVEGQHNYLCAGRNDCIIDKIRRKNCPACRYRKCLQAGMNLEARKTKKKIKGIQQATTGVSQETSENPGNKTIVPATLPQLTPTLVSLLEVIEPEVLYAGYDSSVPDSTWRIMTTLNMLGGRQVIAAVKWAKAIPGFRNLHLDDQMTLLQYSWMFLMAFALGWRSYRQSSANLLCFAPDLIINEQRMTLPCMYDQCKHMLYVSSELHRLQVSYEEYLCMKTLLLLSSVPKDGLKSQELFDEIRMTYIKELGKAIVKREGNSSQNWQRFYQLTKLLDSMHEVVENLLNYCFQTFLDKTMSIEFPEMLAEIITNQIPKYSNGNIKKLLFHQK
Procedure: Human Glucocorticoid Receptor (GR) Assay
The assay is based on a commercial kit from Panvera/Invitrogen (Part number P2893). The assay technology is fluorescence polarization. […] The GR and Stabilizing Peptide reagents are stored at −70° C. while the GS Red is stored at −20° C. Also included in the kit are 1M DTT (Panvera, Part number P2325, stored at −20° C.) and GR Screening buffer 10× (Panvera, Part number P2814, stored at −70° C. initially but once thawed stored at room temperature). Avoid repeated freeze/thaws for all reagents. The GR Screening buffer 10× comprises 100 mM potassium phosphate, 200 mM sodium molybdate, 1 mM EDTA and 20% DMSO.
0% control was 100% DMSO and 100% control was 10 μM Dexamethasone. Background solution (8 μL; assay buffer 10×, Stabilizing Peptide, DTT and ice cold MQ water) was added to the background wells. GS Red solution (7 μL; assay buffer 10×, Stabilizing Peptide, DTT, GS Red and ice cold water) was added to all wells except background wells. GR solution (7 μL; assay buffer 10×, Stabilizing Peptide, DTT, GR and ice cold water) was added to all wells. The plate was sealed and incubated in a dark at room temperature for 2 hours.

In order of rising IC50:
1. C[C@H](NS(=O)(=O)CC(F)(F)F)[C@H](Oc1ccc2c(cnn2-c2ccc(F)cc2)c1)c1ccccc1 [Example 22, 2,2,2-trifluoro-N-[(1R,2S)-1-[1-(4-fluorophenyl)indazol-5-yl]oxy-1-phenyl-propan-2-yl]ethanesulfonamide]  2.7 nM
2. CCS(=O)(=O)N[C@@H](C)[C@H](Oc1ccc2c(cnn2-c2ccc(F)cc2)c1)c1ccccc1 [Example 12, N-[(1R,2S)-1-[1-(4-fluorophenyl)indazol-5-yl]oxy-1-phenyl-propan-2-yl]ethanesulfonamide]  2.8 nM
3. C[C@H](NS(=O)(=O)CCC(F)(F)F)[C@H](Oc1ccc2c(cnn2-c2ccc(F)cc2)c1)c1ccccc1 [Example 18, 3,3,3-trifluoro-N-[(1R,2S)-1-[1-(4-fluorophenyl)indazol-5-yl]oxy-1-phenyl-propan-2-yl]propane-1-sulfonamide]  4.3 nM
4. C[C@H](NS(C)(=O)=O)[C@H](Sc1ccc2c(cnn2-c2ccc(F)cc2)c1)c1ccccc1 [Example 38, N-((1R,2S)-1-(1-(4-fluorophenyl)-1H-indazol-5-ylthio)-1-phenylpropan-2-yl)methanesulfonamide]  4.8 nM
5. CCCC(C)S(=O)(=O)N[C@@H](C)[C@H](Oc1ccc2c(cnn2-c2ccc(F)cc2)c1)c1ccccc1 (stereo partly drawn) [Example 13, N-[(1R,2S)-1-[1-(4-fluorophenyl)indazol-5-yl]oxy-1-phenyl-propan-2-yl]pentane-2-sulfonamide]  5 nM
6. C[C@H](NS(=O)(=O)C1CC1)[C@H](Oc1cc2cnn(-c3ccc(F)cc3)c2cc1Cl)c1ccc(F)cc1 (racemic) [Example 35, N-[(1RS,2SR)-1-[6-chloro-1-(4-fluorophenyl)indazol-5-yl]oxy-1-(4-fluorophenyl)propan-2-yl]cyclopropanesulfonamide]  6.2 nM
7. C[C@H](NS(=O)(=O)C1CC1)[C@H](Oc1ccc2c(cnn2-c2ccc(F)cc2)c1)c1ccc([S+](C)[O-])cc1 (stereo partly drawn) [Example 31, N-[(1R,2S)-1-[1-(4-fluorophenyl)indazol-5-yl]oxy-1-(4-methylsulfinylphenyl)propan-2-yl]cyclopropanesulfonamide]  6.4 nM
8. C[C@H](NS(=O)(=O)CCN1C(=O)c2ccccc2C1=O)[C@H](Oc1ccc2c(cnn2-c2ccc(F)cc2)c1)c1ccccc1 [Example 10, 2-(1,3-Dioxoisoindol-2-yl)-N-[(1R,2S)-1-[1-(4-fluorophenyl)indazol-5-yl]oxy-1-phenyl-propan-2-yl]ethanesulfonamide]  6.5 nM
9. C[C@H](NS(=O)(=O)c1cccnc1)[C@H](Oc1ccc2c(cnn2-c2ccc(F)cc2)c1)c1ccccc1 [Example 25, N-[(1R,2S)-1-[1-(4-fluorophenyl)indazol-5-yl]oxy-1-phenyl-propan-2-yl]pyridine-3-sulfonamide]  7 nM
10. C[C@H](NS(=O)(=O)CC1CCCC1)[C@H](Oc1ccc2c(cnn2-c2ccc(F)cc2)c1)c1ccccc1 [Example 20, 1-Cyclopentyl-N-[(1R,2S)-1-[1-(4-fluorophenyl)indazol-5-yl]oxy-1-phenyl-propan-2-yl]methanesulfonamide]  8.7 nM
11. O=S(=O)(NC[C@H](Sc1ccc2c(cnn2-c2ccc(F)cc2)c1)c1ccccc1)C1CC1 [Example 37, (R)—N-[2-[1-(4-fluorophenyl)indazol-5-yl]sulfanyl-2-phenyl-ethyl]cyclopropanesulfonamide]  17 nM
12. Cc1ccc(-n2ncc3cc(O[C@H](c4ccccc4)C(C)(C)NS(=O)(=O)C4CC4)ccc32)cc1 [Example 26, (R)—N-(2-methyl-1-phenyl-1-(1-p-tolyl-1H-indazol-5-yloxy)propan-2-yl)cyclopropanesulfonamide]  77 nM
13. CC(C)n1ncc2cc(O[C@H](c3ccccc3)[C@H](C)NS(C)(=O)=O)ccc21 [Example 30, N-[(1R,2S)-1-phenyl-1-(1-propan-2-ylindazol-5-yl)oxy-propan-2-yl]methanesulfonamide]  330 nM
